From patent publication US20020059032A1, “Rational selection of putative peptides from identified nucleotide or peptide sequences” (priority 1999, published 2002)
Where a SMILES comes first, the peptide text is derived from it.

biological target: guinea pig brain membranes; assay: Binding test with guinea pig brain membranes; conditions: tested on guinea pig brain membranes; read-out: IC50 = 100 μM
Procedure: Binding Assay Alternative Protocol by Skatron
The experimental conditions are identical for all the binding assay protocols except for the fact that: i) the volume R in operation is 200 μl; ii) the test carried out in 96-well Falcon plates iii) the reaction is directly stopped by filtration on filterMat (ref. 11734) Skatron and the radioactivity associated with the filtrate is evaluated: either directly with a γ counter for the peptides labelled with […]: or with a […] in the presence of 5 ml of scintillating liquid.
Membrane Preparations of Guinea Pig Brains and Binding Assay
The guinea pigs are sacrificed by rupturing their cervical vertibrae, decapitated, and the brains are removed very rapidly and placed into a sucrose-Tris-HCl buffer (0.32 M sucrose 5 mM, Tris-HCl, 0.1 g/l bacitracin) at 4° C. (about 10 ml of buffer per brain). The brains are then homogenized using a Potter device and the homogenate is placed in incubation for 30 minutes at 37° C. under agitation, then centrifuged twice for 35 minutes at 100,000×g at 4° C. The protein content of the membrane preparations is evaluated according to the Bradford method (BioRad, according to the manufacturers protocol).
Bonding of Labelled Agonists to the Guinea Pig Brain Membrane Preparation The membranes are placed in a buffer (50 mM of Tris-HCl, 5 mM of MgCl2 and 0.1 g/l of bacitracin) at the desired protein concentration (iodized CCK bond, 0.1 mg of protein/ml; iodized gastrin bond: 0.5 mg of proteins/ml). They are then incubated in the presence of a labelled ligand in a total volume of 500 μl (about 10 pM for the iodized CCK8, 20 pM for the iodized gastrin13), 50-80 minutes at 25° C., and in the presence or absence of cold agonists. The reaction is stopped with 3 ml of additional BSA buffer (20 g/l) at 4° C., the tubes are centrifuged at 10,000×g, the supernatant is drawn off and the radioactivity associated with the precipitate is evaluated with a γ counter.

| SMILES | IC50 |
| --- | --- |
| CSCC[C@H](NC(=O)[C@H](CCC(N)=O)NC(=O)[C@H](CC(C)C)NC(=O)[C@H](CCCCN)NC(=O)[C@@H]1CCCN1C(=O)[C@H](CC(=O)O)NC(=O)[C@H](CCC(N)=O)NC(=O)[C@@H](NC(=O)[C@@H](N)C(C)C)[C@@H](C)O)C(N)=O [Example 8, H-VTQDPKLQM-NH2] (H-VTQDPKLQM-NH2) | 4200 nM |
| CSCC[C@H](NC(=O)CNC(=O)[C@H](Cc1ccccc1)NC(=O)[C@H](CC(=O)O)NC(=O)[C@H](CCCNC(=N)N)NC(=O)[C@H](CCSC)NC(=O)[C@@H](NC(=O)[C@@H](NC(=O)[C@@H](NC(=O)[C@H](CO)NC(=O)[C@@H](N)Cc1ccccc1)C(C)C)[C@@H](C)O)[C@@H](C)O)C(N)=O [Example 16, H-FSVTTMRDFGM-NH2] (H-FSVTTMRDFGM-NH2) | 80 nM |
| CC[C@H](C)[C@H](NC(=O)[C@H](CO)NC(=O)[C@@H](N)Cc1ccccc1)C(=O)N[C@@H](C)C(=O)N[C@H](C(=O)N[C@@H](CC(C)C)C(=O)N[C@@H](CCCNC(=N)N)C(=O)N[C@@H](CC(=O)O)C(=O)N[C@@H](Cc1ccccc1)C(=O)NCC(=O)N[C@H](C(N)=O)C(C)C)[C@@H](C)O [Example 15, H-FSIATLRDFGV-NH2] (H-FSIATLRDFGV-NH2) | 360 nM |
| CC(C)C[C@H](NC(=O)[C@H](CO)NC(=O)[C@@H]1CCCN1C(=O)[C@@H](N)CC(=O)O)C(=O)N1CCC[C@H]1C(=O)N[C@H](C(=O)N[C@@H](C)C(=O)N[C@@H](CO)C(=O)N[C@@H](CO)C(=O)N[C@@H](CO)C(=O)N[C@@H](CO)C(=O)N[C@@H](CO)C(=O)N[C@@H](CO)C(=O)N[C@@H](CO)C(=O)N[C@@H](CCCCN)C(=O)N[C@@H](CCCNC(=N)N)C(N)=O)C(C)C [Example 11, H-DPSLPVASSSSSSSKR-NH2] (H-DPSLPVASSSSSSSKR-NH2) | 270 nM |
| CC[C@H](C)[C@H](NC(=O)[C@@H](N)C(C)C)C(=O)N[C@@H](CCC(N)=O)C(=O)N[C@@H](Cc1ccc(O)cc1)C(=O)N[C@@H](CC(C)C)C(=O)N[C@@H](C)C(=O)N[C@@H](Cc1c[nH]cn1)C(=O)N[C@H](C(=O)N[C@@H](C)C(=O)N[C@@H](CO)C(=O)N[C@@H](CO)C(=O)N[C@@H](Cc1c[nH]cn1)C(=O)N[C@@H](CCCCN)C(N)=O)C(C)C [Example 63, H-VIQYLAHVASSHK-NH2] (H-VIQYLAHVASSHK-NH2) | 20 nM |
| CC[C@H](C)[C@H](NC(=O)[C@H](CO)NC(=O)[C@H](Cc1ccccc1)NC(=O)[C@@H](N)CO)C(=O)N[C@H](C(=O)NCC(=O)N[C@@H](CC(=O)O)C(=O)N[C@@H](Cc1ccccc1)C(=O)N[C@@H](CCC(N)=O)C(=O)N[C@@H](CC(N)=O)C(N)=O)[C@@H](C)CC [Example 30, H-SFSIIGDFQN-NH2] (H-SFSIIGDFQN-NH2) | 27000 nM |
| CC(C)C[C@H](NC(=O)[C@@H]1CCCN1C(=O)[C@H](CC(C)C)NC(=O)[C@H](CCC(N)=O)NC(=O)[C@@H](N)Cc1ccccc1)C(=O)N[C@@H](CC(=O)O)C(=O)N[C@@H](CCCCN)C(=O)NCC(=O)N[C@@H](CC(N)=O)C(N)=O [Example 29, H-FQLPLDKGN-NH2] (H-FQLPLDKGN-NH2) | 10 nM |
| CC[C@H](C)[C@H](N)C(=O)N[C@@H](CO)C(=O)N[C@@H](CCC(=O)O)C(=O)N[C@@H](CC(C)C)C(=O)N[C@@H](Cc1ccccc1)C(=O)N[C@H](C(=O)N[C@@H](CC(C)C)C(=O)N[C@@H](CCC(=O)O)C(N)=O)[C@@H](C)O [Example 35, H-ISELFTLE-NH2] (H-ISELFTLE-NH2) | 5600 nM |
| C[C@H](NC(=O)[C@H](CCC(=O)O)NC(=O)[C@@H]1CCCN1C(=O)[C@H](CCC(N)=O)NC(=O)[C@H](Cc1ccccc1)NC(=O)[C@H](CO)NC(=O)[C@H](CO)NC(=O)[C@@H](N)CCC(=O)O)C(=O)NCC(=O)N[C@@H](Cc1ccccc1)C(N)=O [Example 24, H-ESSFQPEAGF-NH2] (H-ESSFQPEAGF-NH2) | 230 nM |
| CC(C)C[C@H](NC(=O)[C@H](CO)NC(=O)[C@H](Cc1c[nH]cn1)NC(=O)[C@H](CO)NC(=O)[C@H](CO)NC(=O)[C@@H](N)CO)C(=O)N[C@@H](CO)C(=O)N[C@@H](Cc1c[nH]cn1)C(=O)N[C@@H](CCCCN)C(N)=O [Example 68, H-SSSHSLSHK-NH2] (H-SSSHSLSHK-NH2) | 25 nM |
| CSCC[C@H](N)C(=O)N[C@@H](CC(=O)O)C(=O)N[C@H](C(=O)NCC(=O)NCC(=O)N[C@@H](CC(C)C)C(=O)N[C@@H](CO)C(=O)N[C@@H](CC(=O)O)C(=O)N1CCC[C@H]1C(=O)N[C@@H](Cc1ccc(O)cc1)C(=O)N[C@H](C(=O)N[C@@H](CCCCN)C(=O)N[C@H](C(=O)N[C@@H](Cc1c[nH]cn1)C(=O)N[C@@H](CC(C)C)C(=O)N[C@@H](CC(C)C)C(=O)N[C@@H](CCC(N)=O)C(=O)NCC(N)=O)C(C)C)C(C)C)C(C)C [Example 10, H-MDVGGLSDPYVKVHLLQG-NH2] (H-MDVGGLSDPYVKVHLLQG-NH2) | 30 nM |
| CSCC[C@H](NC(=O)[C@H](CCC(N)=O)NC(=O)[C@H](Cc1ccccc1)NC(=O)CNC(=O)[C@H](CO)NC(=O)[C@@H](N)CC(=O)O)C(=O)N[C@@H](CC(N)=O)C(=O)N[C@@H](CCC(N)=O)C(=O)N[C@@H](CC(C)C)C(=O)N[C@@H](CCCNC(=N)N)C(N)=O [Example 13, H-DSGFQMNQLR-NH2] (H-DSGFQMNQLR-NH2) | 90 nM |
| CSCC[C@H](NC(=O)[C@H](CO)NC(=O)[C@H](CCSC)NC(=O)[C@H](CO)NC(=O)[C@H](CC(=O)O)NC(=O)[C@H](CCCCN)NC(=O)[C@H](CC(N)=O)NC(=O)[C@H](CCC(N)=O)NC(=O)[C@H](CCCNC(=N)N)NC(=O)[C@@H](NC(=O)[C@H](CCCCN)NC(=O)[C@@H](N)CCSC)[C@@H](C)O)C(=O)N[C@@H](CCCNC(=N)N)C(=O)N[C@@H](CO)C(N)=O [Example 43, H-MKTRQNKDSMSMRS-NH2] (H-MKTRQNKDSMSMRS-NH2) | 50 nM |
| CC(C)[C@H](NC(=O)[C@H](C)NC(=O)[C@@H](NC(=O)[C@H](Cc1c[nH]c2ccccc12)NC(=O)[C@@H]1CCCN1)[C@@H](C)O)C(=O)N[C@@H](CC(=O)O)C(=O)N[C@H](C(=O)N[C@@H](CO)C(=O)N[C@H](C(=O)N[C@@H](CC(=O)O)C(N)=O)C(C)C)[C@@H](C)O [Example 51, H-PWTAVDTSVD-NH2] (H-PWTAVDTSVD-NH2) | 140 nM |
| CC[C@H](C)[C@H](NC(=O)[C@H](Cc1ccccc1)NC(=O)[C@H](C)NC(=O)[C@H](CCSC)NC(=O)[C@@H](NC(=O)[C@H](CCC(=O)O)NC(=O)[C@@H]1CCCN1C(=O)CNC(=O)[C@H](CCCCN)NC(=O)[C@@H](N)CCSC)C(C)C)C(=O)N[C@@H](CCC(=O)O)C(=O)N[C@@H](CCC(N)=O)C(N)=O [Example 40, H-MKGPEVMAFIEQ-NH2] (H-MKGPEVMAFIEQ-NH2) | 130 nM |
| CSCC[C@H](NC(=O)[C@H](CCCNC(=N)N)NC(=O)[C@@H](N)CCC(=O)O)C(=O)NCC(=O)N[C@@H](Cc1c[nH]cn1)C(=O)N[C@@H](Cc1c[nH]cn1)C(=O)N[C@@H](CC(=O)O)C(=O)N[C@@H](CC(=O)O)C(=O)N[C@@H](Cc1ccc(O)cc1)C(=O)N[C@@H](Cc1ccc(O)cc1)C(=O)N[C@@H](CO)C(=O)N[C@@H](CCCNC(=N)N)C(=O)N[C@@H](CC(C)C)C(=O)N[C@@H](CCCNC(=N)N)C(N)=O [Example 44, H-ERMGHHDDYYSRLR-NH2] (H-ERMGHHDDYYSRLR-NH2) | 100 nM |
